Test results: ChEMBL document CHEMBL3885881, “DrugMatrix”

Species: Rattus norvegicus
Experiment: DrugMatrix - Regimen: Daily Repeat
Type: toxicity, organism-based, Sprague-Dawley
Set-up: regimen Daily Repeat, gender Male, age 6-8 weeks
Settings: in vivo, po, route oral GAVAGE, vehicle 100 % WATER; for ERYTHROCYTE COUNT / HEMATOCRIT / HEMOGLOBIN / LEUKOCYTE COUNT / MEAN CORPUSCULAR HEMOGLOBIN / MEAN CORPUSCULAR HEMOGLOBIN CONCENTRATION / MEAN CORPUSCULAR VOLUME: tissue Blood; for ALKALINE PHOSPHATASE / ASPARTATE AMINOTRANSFERASE / BLOOD UREA NITROGEN / CARBON DIOXIDE / CHLORIDE / CHOLESTEROL / CREATINE PHOSPHOKINASE / CREATININE / GLUCOSE / LACTATE DEHYDROGENASE / LIPASE / PHOSPHORUS / POTASSIUM / SODIUM / TOTAL BILIRUBIN / TOTAL PROTEIN / URIC ACID: tissue Plasma
[1] = 0 mg/kg, 72 h, dose level Control, time 3 day
[2] = 0 mg/kg, 120 h, dose level Control, time 5 day
[3] = 58 mg/kg, 72 h, dose level Low, time 3 day
[4] = 58 mg/kg, 120 h, dose level Low, time 5 day

## C#Cc1cccc(Nc2ncnc3cc(OCCOC)c(OCCOC)cc23)c1 [ERLOTINIB]
[1]
  ERYTHROCYTE COUNT: 6.09 x10E6/uL
  HEMATOCRIT: 42.62%
  HEMOGLOBIN: 13.07 G/DL
  LEUKOCYTE COUNT: 13.95 x10E3/uL
  MEAN CORPUSCULAR HEMOGLOBIN: 21.47 pg
  MEAN CORPUSCULAR HEMOGLOBIN CONCENTRATION: 30.62 G/DL
  MEAN CORPUSCULAR VOLUME: 70.05 fL
  ALKALINE PHOSPHATASE: 369 u/L
  ASPARTATE AMINOTRANSFERASE: 86.17 u/L
  BLOOD UREA NITROGEN: 16.33 mg/dL
  CARBON DIOXIDE: 37.33 mmol/L
  CHLORIDE: 104.83 MEQ/L
  CHOLESTEROL: 79.83 mg/dL
  CREATINE PHOSPHOKINASE: 392.83 u/L
  CREATININE: 0.68 mg/dL
  GLUCOSE: 153.33 mg/dL
  LACTATE DEHYDROGENASE: 426.17 u/L
  LIPASE: 11.67 u/L
  PHOSPHORUS: 11 mg/dL
  POTASSIUM: 6.72 MEQ/L
  SODIUM: 146.67 MEQ/L
  TOTAL BILIRUBIN: 0.55 mg/dL
  TOTAL PROTEIN: 6.32 G/DL
  URIC ACID: 0.0167 mg/dL
[2]
  ERYTHROCYTE COUNT: 6.93 x10E6/uL
  HEMATOCRIT: 46.82%
  HEMOGLOBIN: 14.23 G/DL
  LEUKOCYTE COUNT: 13.43 x10E3/uL
  MEAN CORPUSCULAR HEMOGLOBIN: 20.55 pg
  MEAN CORPUSCULAR HEMOGLOBIN CONCENTRATION: 30.38 G/DL
  MEAN CORPUSCULAR VOLUME: 67.62 fL
  ALKALINE PHOSPHATASE: 417.83 u/L
  ASPARTATE AMINOTRANSFERASE: 83 u/L
  BLOOD UREA NITROGEN: 15.33 mg/dL
  CARBON DIOXIDE: 38.83 mmol/L
  CHLORIDE: 98.17 MEQ/L
  CHOLESTEROL: 66.83 mg/dL
  CREATINE PHOSPHOKINASE: 383.17 u/L
  CREATININE: 0.72 mg/dL
  GLUCOSE: 156.5 mg/dL
  LACTATE DEHYDROGENASE: 519.67 u/L
  LIPASE: 4.83 u/L
  PHOSPHORUS: 11.07 mg/dL
  POTASSIUM: 6.03 MEQ/L
  SODIUM: 138 MEQ/L
  TOTAL BILIRUBIN: 0.55 mg/dL
  TOTAL PROTEIN: 6.3 G/DL
  URIC ACID: 0.0833 mg/dL
[3]
  ERYTHROCYTE COUNT: 7.23 x10E6/uL
  HEMATOCRIT: 47.6%
  HEMOGLOBIN: 14.6 G/DL
  LEUKOCYTE COUNT: 17.02 x10E3/uL
  MEAN CORPUSCULAR HEMOGLOBIN: 20.2 pg
  MEAN CORPUSCULAR HEMOGLOBIN CONCENTRATION: 30.77 G/DL
  MEAN CORPUSCULAR VOLUME: 265.73 fL
  ALKALINE PHOSPHATASE: 184.67 u/L
  ASPARTATE AMINOTRANSFERASE: 86.33 u/L
  BLOOD UREA NITROGEN: 16 mg/dL
  CARBON DIOXIDE: 39 mmol/L
  CHLORIDE: 107.67 MEQ/L
  CHOLESTEROL: 93.67 mg/dL
  CREATINE PHOSPHOKINASE: 293 u/L
  CREATININE: 0.73 mg/dL
  GLUCOSE: 141.33 mg/dL
  LACTATE DEHYDROGENASE: 441.67 u/L
  LIPASE: 21.33 u/L
  PHOSPHORUS: 10 mg/dL
  POTASSIUM: 6.7 MEQ/L
  SODIUM: 148.67 MEQ/L
  TOTAL BILIRUBIN: 0.73 mg/dL
  TOTAL PROTEIN: 5.13 G/DL
  URIC ACID: 0 mg/dL
[4]
  ERYTHROCYTE COUNT: 7.1 x10E6/uL
  HEMATOCRIT: 46.07%
  HEMOGLOBIN: 13.83 G/DL
  LEUKOCYTE COUNT: 18.86 x10E3/uL
  MEAN CORPUSCULAR HEMOGLOBIN: 19.47 pg
  MEAN CORPUSCULAR HEMOGLOBIN CONCENTRATION: 29.97 G/DL
  MEAN CORPUSCULAR VOLUME: 64.9 fL
  ALKALINE PHOSPHATASE: 222 u/L
  ASPARTATE AMINOTRANSFERASE: 105.33 u/L
  BLOOD UREA NITROGEN: 14.67 mg/dL
  CARBON DIOXIDE: 38.67 mmol/L
  CHLORIDE: 100.33 MEQ/L
  CHOLESTEROL: 81.33 mg/dL
  CREATINE PHOSPHOKINASE: 332 u/L
  CREATININE: 0.73 mg/dL
  GLUCOSE: 135 mg/dL
  LACTATE DEHYDROGENASE: 477.67 u/L
  LIPASE: 16.67 u/L
  PHOSPHORUS: 11.53 mg/dL
  POTASSIUM: 6.07 MEQ/L
  SODIUM: 141 MEQ/L
  TOTAL BILIRUBIN: 0.5 mg/dL
  TOTAL PROTEIN: 5.57 G/DL
  URIC ACID: 0.1 mg/dL
